# Laboratory results: EPA's ToxValDB 9.5 (doi:10.2903/j.efsa.2010.1598)
# Key:
# [1] = test system: Anas platyrhynchos
# [2] = test system: Tagia sp.
# [3] = test system: Rattus norvegicus
# [4] = test system: Daphnia magna; conditions: chronic/long-term; duration: 21 days; reproduction
# [5] = test system: Ictalurus punctatus; conditions: acute; duration: 96 hours; mortality
# [6] = test system: Bibionidae; conditions: chronic/long-term; duration: 28 days
# [7] = test system: Canidae; conditions: acute; oral; Dog Other; mortality
# [8] = test system: Oryctolagus sp.; conditions: developmental; development
# [9] = test system: Oncorhynchus mykiss; conditions: chronic/long-term; duration: 21 days; growth
# [10] = test system: Colinus virginianus; conditions: acute; oral; mortality
# [11] = test system: Apis mellifera; conditions: acute; dermal; mortality
smiles,measurement,setting,value
COC(=O)Nc1nc2ccccc2[nH]1 [Carbendazim],NOEL,[1]; reproductive,24.6 mg/kg-day
same,LD50,"[1]; short-term, oral, feed, mortality",615 mg/kg-day
same,LC50,"[2]; acute, duration: 14 days, mortality",5.4 mg/kg
same,NOEC,"[2]; chronic/long-term, duration: 56 days",1 mg/kg
same,NOEL,"[3]; chronic, organ weight",22.5 mg/kg-day
same,NOAEL,"[3]; developmental, development",10 mg/kg-day
same,NOEC,[4],0.0015 mg/L
same,LC50,[5],0.019 µg/mL
same,NOEC,[6],0.0133 mg/L
same,LD50,[7],> 5000 mg/kg-day
same,NOAEL,[8],10 mg/kg-day
same,NOEC,[9],0.0032 mg/L
same,LD50,[10],> 2250 mg/kg-day
same,LD50,[11],> 50 µg/piece
